According to patent US20260284208A1, “SYSTEM” (Oxford University Innovation Limited, priority 2023, published 2026):

Test system: library of 8,380 IKZF3 degrons (ZF-eGFP/mCherry reporter) in Jurkat cells
Assay: Pooled library screen (FACS, NGS, limma voom LogFC of positive vs negative read counts)
Assay type: cell-based, human
Procedure: A library of 8,380 IKZF3 degrons was cloned into pLVX-Sprout to create the eGFP/mCherry protein degradation reporter plasmid pool. A lentivirus pool was then generated using the Lenti-X lentiviral vector production method.
Jurkat cells were transduced at a multiplicity of infection of <0.3 with the lentivirus vector library in order to maximise the number of cells with a single integration. Transductions were carried out in 6 well TC-treated cell culture dishes (Falcon) with 3×10^6 cells per well. Cells were incubated for 2 days at 37° C. and 5% CO2 before the supernatant was removed and replaced with fresh media. 6 days post-transduction, mCherry+ cells were isolated via FACS using the FACS Aria Fusion (BD) in a buffer containing PBS (Gibco), 2 mM EDTA (Gibco), 25 mM HEPES (Sigma) and 1% BSA (Sigma). 8 days later, cells were treated with DMSO or a thalidomide analog for 18 hours at 37° C. and 5% CO2. mCherry+GFPlow and NOT(mCherry+GFPlow) cells were sorted by FACS using the FACS Aria Fusion (BD). DMSO treated cells were used to set the mCherry+GFPlow gate and dead cells were excluded from sorting by staining cells with 1 μg/mL DAPI (ThermoFisher). gDNA was isolated using the Maxwell RSC 48 (Promega). gDNA from cells that were unsorted and untreated were also isolated to determine the library representation on the day of compound treatment. Throughout the screen >600× coverage of the library was maintained. 3 biological replicates were carried out with a new transduction taking place each time.
A two-step PCR was used where the first PCR (PCR1) amplified the integrated degron sequence from gDNA and the second PCR (PCR2) added Illumina adaptors and barcodes to permit multiplexing. See Supp F for PCR1 and PCR2 primers. Q5 Hot Start High-Fidelity 2× Master Mix (New England Biolabs) was used for both PCRs. Sufficient gDNA was amplified in PCR1 in order to maintain >600× coverage and amplicons were purified using solid phase reversible immobilization (SPRI) beads (Beckman Coulter). Purified PCR1 products were analysed on the Tapestation 4200 (Agilent) to confirm purity prior to proceeding to PCR2. Sufficient PCR1 product was amplified in PCR2 in order to maintain >600× coverage and amplicons were run on a 2% agarose TAE gel. Target bands were excised and purified using the NucleoSpin Gel and PCR Clean-up Kit (Machery Nagel). Amplicons were analysed on the Tapestation 4200 and quantified using Qubit dsDNA HS kit (ThermoFisher). PCR products were pooled and sequenced as paired-reads on the NovaSeq (Illumina) using a SP2 200 cycles kit (Illumina).
Count distributions, percentage of read mapping, library coverage and replicate correlation per sample were assessed for QC purposes.
To carry out the library screen, we used the same plasmid construct as in our earlier flow cytometry assays, but pooling all 8,380 mutants together into one Jurkat population, ensuring a copy number of one plasmid per cell (FIG. 4B). […] These GFP-negative cells were then separated from the remaining GFP-positive population using fluorescence activated cell sorting (FACS). These two populations were then sequenced and the relative abundance of every mutant in both populations compared to provide a log FC value for each mutant sequence. This value indicated how frequently a sequence is observed in the GFP-negative population relative to the GFP-positive population, and therefore how effective a degron it is for that particular IMID compound.

In the case of `O=C1CCC(N2C(=O)c3ccccc3C2=O)C(=O)N1` (centres unmarked) [A32, 2-(2,6-dioxopiperidin-3-yl)isoindoline-1,3-dione], the A32_logFC (Degron-ID 3102, SEQ ID NO 98, 46F_47Q_49P_50V_52G_53A_54D_55F_67L) is reported as 3.4, the A32_logFC (Degron-ID 3105, SEQ ID NO 103, 46F_47Q_49P_50V_52G_53A_54G_55F_67L) is reported as 3.381 and the A32_logFC (Degron-ID 3106, SEQ ID NO 132, 46F_47Q_49P_50V_52G_53A_54H_55F_67L) is reported as 3.266. It also gave an A32_logFC (Degron-ID 3107, SEQ ID NO 70, 46F_47Q_49P_50V_52G_53A_54I_55F_67L) of 3.527, an A32_logFC (Degron-ID 3108, SEQ ID NO 4, 46F_47Q_49P_50V_52G_53A_54K_55F_67L) of 3.962 and an A32_logFC (Degron-ID 3109, SEQ ID NO 75, 46F_47Q_49P_50V_52G_53A_54L_55F_67L) of 3.497. It also gave an A32_logFC (Degron-ID 3110, SEQ ID NO 49, 46F_47Q_49P_50V_52G_53A_54M_55F_67L) of 3.582, an A32_logFC (Degron-ID 3111, SEQ ID NO 78, 46F_47Q_49P_50V_52G_53A_54N_55F_67L) of 3.484 and an A32_logFC (Degron-ID 3112, SEQ ID NO 5, 46F_47Q_49P_50V_52G_53A_54P_55F_67L) of 3.872. For the same compound, the A32_logFC (Degron-ID 3116, SEQ ID NO 9, 46F_47Q_49P_50V_52G_53A_54T_55F_67L) was 3.794, the A32_logFC (Degron-ID 3132, SEQ ID NO 73, 46F_47R_49D_50I_52G_53A_54P_55F_67L) was 3.521 and the A32_logFC (Degron-ID 3192, SEQ ID NO 53, 46F_47R_49E_50I_52G_53A_54P_55F_67L) was 3.575. For the same compound, the A32_logFC (Degron-ID 3252, SEQ ID NO 104, 46F_47R_49N_50I_52G_53A_54P_55F_67L) was 3.38, the A32_logFC (Degron-ID 3312, SEQ ID NO 69, 46F_47R_49P_50I_52G_53A_54P_55F_67L) was 3.528 and the A32_logFC (Degron-ID 3352, SEQ ID NO 74, 46F_47R_49P_50V_52G_53A_54P_55F_67L) was 3.513. The A32_logFC (Degron-ID 3714, SEQ ID NO 136, 46F_47T_49E_50V_52G_53A_54R_55F_67L) was 3.256, the A32_logFC (Degron-ID 3799, SEQ ID NO 121, 46F_47T_49P_50I_52G_53A_54Y_55F_67L) was 3.31 and the A32_logFC (Degron-ID 3821, SEQ ID NO 117, 46F_47T_49P_50V_52G_53A_54C_55F_67L) was 3.33. For the same compound, the A32_logFC (Degron-ID 3940, SEQ ID NO 110, 46F_47V_49E_50V_52G_53A_54A_55F_67L) was 3.355, the A32_logFC (Degron-ID 3954, SEQ ID NO 139, 46F_47V_49E_50V_52G_53A_54R_55F_67L) was 3.254 and the A32_logFC (Degron-ID 3955, SEQ ID NO 63, 46F_47V_49E_50V_52G_53A_54S_55F_67L) was 3.54. It also gave an A32_logFC (Degron-ID 3972, SEQ ID NO 115, 46F_47V_49N_50I_52G_53A_54P_55F_67L) of 3.332, an A32_logFC (Degron-ID 4032, SEQ ID NO 77, 46F_47V_49P_50I_52G_53A_54P_55F_67L) of 3.493 and an A32_logFC (Degron-ID 6496, SEQ ID NO 102, 46L_47C_49P_50I_52G_53F_54T_55C_67L) of 3.382. For the same compound, the A32_logFC (Degron-ID 6528, SEQ ID NO 135, 46L_47E_49P_50I_52G_53F_54K_55C_67L) was 3.258, the A32_logFC (Degron-ID 6536, SEQ ID NO 101, 46L_47E_49P_50I_52G_53F_54T_55C_67L) was 3.382 and the A32_logFC (Degron-ID 6539, SEQ ID NO 113, 46L_47E_49P_50I_52G_53F_54Y_55C_67L) was 3.343. For the same compound, the A32_logFC (Degron-ID 6700, SEQ ID NO 60, 46L_47Q_49P_50I_52G_53F_54A_55C_67L) was 3.551, the A32_logFC (Degron-ID 6703, SEQ ID NO 88, 46L_47Q_49P_50I_52G_53F_54E_55C_67L) was 3.442 and the A32_logFC (Degron-ID 6706, SEQ ID NO 122, 46L_47Q_49P_50I_52G_53F_54H_55C_67L) was 3.305. The A32_logFC (Degron-ID 6707, SEQ ID NO 85, 46L_47Q_49P_50I_52G_53F_54I_55C_67L) was 3.453, the A32_logFC (Degron-ID 6708, SEQ ID NO 96, 46L_47Q_49P_50I_52G_53F_54K_55C_67L) was 3.401 and the A32_logFC (Degron-ID 6710, SEQ ID NO 59, 46L_47Q_49P_50I_52G_53F_54M_55C_67L) was 3.553. The A32_logFC (Degron-ID 6713, SEQ ID NO 86, 46L_47Q_49P_50I_52G_53F_54Q_55C_67L) was 3.449, the A32_logFC (Degron-ID 6714, SEQ ID NO 111, 46L_47Q_49P_50I_52G_53F_54R_55C_67L) was 3.346 and the A32_logFC (Degron-ID 6715, SEQ ID NO 66, 46L_47Q_49P_50I_52G_53F_54S_55C_67L) was 3.532. It also gave an A32_logFC (Degron-ID 6719, SEQ ID NO 81, 46L_47Q_49P_50I_52G_53F_54Y_55C_67L) of 3.469, an A32_logFC (Degron-ID 6732, SEQ ID NO 89, 46L_47R_49P_50I_52G_53F_54P_55C_67L) of 3.438 and an A32_logFC (Degron-ID 6775, SEQ ID NO 76, 46L_47T_49P_50I_52G_53F_54S_55C_67L) of 3.495. For the same compound, the A32_logFC (Degron-ID 6776, SEQ ID NO 87, 46L_47T_49P_50I_52G_53F_54T_55C_67L) was 3.444, the A32_logFC (Degron-ID 6780, SEQ ID NO 57, 46L_47V_49P_50I_52G_53F_54A_55C_67L) was 3.558 and the A32_logFC (Degron-ID 6795, SEQ ID NO 48, 46L_47V_49P_50I_52G_53F_54S_55C_67L) was 3.587. For the same compound, the A32_logFC (Degron-ID 7840, SEQ ID NO 95, 46L_47Q_49E_50I_52G_53F_54A_55C_67L) was 3.402, the A32_logFC (Degron-ID 7848, SEQ ID NO 131, 46L_47Q_49E_50I_52G_53F_54K_55C_67L) was 3.267 and the A32_logFC (Degron-ID 7853, SEQ ID NO 124, 46L_47Q_49E_50I_52G_53F_54Q_55C_67L) was 3.298. The A32_logFC (Degron-ID 7854, SEQ ID NO 52, 46L_47Q_49E_50I_52G_53F_54R_55C_67L) was 3.575, the A32_logFC (Degron-ID 7855, SEQ ID NO 51, 46L_47Q_49E_50I_52G_53F_54S_55C_67L) was 3.576 and the A32_logFC (Degron-ID 7857, SEQ ID NO 99, 46L_47Q_49E_50I_52G_53F_54V_55C_67L) was 3.397. For the same compound, the A32_logFC (Degron-ID 7934, SEQ ID NO 128, 46L_47V_49E_50I_52G_53F_54R_55C_67L) was 3.277 and the A32_logFC (Degron-ID 7935, SEQ ID NO 118, 46L_47V_49E_50I_52G_53F_54S_55C_67L) was 3.326.
